Experimental data: article PMC5466683, “Development and Evaluation of ^18F-IRS for Molecular Imaging Mutant EGF Receptors in NSCLC” (Scientific Reports, 2017)

Legend:
H1975 = tested on: H1975; parameters: method as in PMID 15767641; conditions: H1975, L858R and T790M secondary mutation; cited from earlier work
H358 cell line = tested on: H358 cell line; parameters: method as in PMID 19826406; conditions: H358 (EGFR wild type); cited from earlier work
H520 cells [1] = tested on: H520 cells; parameters: method as in PMID 21152424; conditions: H520 (negative EGFR); cited from earlier work
HCC827 cells [2] = experiment: Cellular uptake, efflux and blocking assay; assay type: cell-based, human; conditions: for cellular uptake: HCC827 cells
Procedure: (§1) Cells were trypsinized and seeded overnight in 12-well culture plates at a density of 1 × 10^5 cells per well (1 × 10^5 cells/1.0 mL/well). ^18F-IRS (37 kBq/1.0 mL/well) in 1 ml of serum free 1640 medium was added to each well and incubated at 37 °C for 15 min, 30 min, 60 min and 120 min. Triplicates were carried out for each time point. One milliliter of ice-cold PBS was used to intercept the uptake of tracer. The supernatants were aspirated and the cells were rinsed twice with 1 mL of ice-cold PBS to remove surface-bound radioactive ligand. After washing twice with PBS, the cells were harvested by the addition of 250 μl of 0.1 N NaOH. Efflux assays were performed after 120 min of incubation with ^18F-IRS and then the media was removed and replaced with serum free 1640 medium without ^18F-IRS. At 15 min, 30 min, 60 min and 120 min, the media was removed and the cells washed twice with ice-cold PBS. 200 μl of 0.1 N NaOH were added to […] the cells and then the wells were washed twice with 1 ml of ice-cold PBS. The cell solution and the PBS from each washed well were recovered and counted with CPM in a gamma counter (Wizard 2, PerkinElmer). The results were calculated using the same cellular uptake formula. For blocking experiments, gefitinib (100 μmol/L) was added to HCC827 cells. After 60 min of incubation, the uptake and efflux assays in HCC827 cells were repeated thrice.

H1975 cells [3] = experiment: Cellular uptake and efflux assay; assay type: cell-based, human; conditions: 120 min of incubation
Procedure: as §1

H358 cells [4] = experiment: Cellular uptake and efflux assay; assay type: cell-based, human; conditions: 120 min of incubation
Procedure: as §1

H520 cells [5] = experiment: Cellular uptake and efflux assay; assay type: cell-based, human; conditions: 120 min of incubation
Procedure: as §1

HCC827 xenografts [6] = experiment: In vivo PET/CT imaging and blocking of tumor-bearing mice; parameters: species or system BALB/c nude mice
Procedure: (§2) All animal studies were conducted in accordance with the China Guidelines for Animal Care and Ethic for Animal Experiments and the experimental protocols were approved by the Animal Use and Care Committee of Harbin Medical University. Female BALB/c nude mice (from the Shanghai Slack Experimental Animal Center of qualified animals SCXK) approximately 4–6 weeks of age and mean weight 20–22 g were used. Approximately 5 × 10^6 of cultured HCC827, H1975, H358 and H520 cells were suspended in PBS/Matrigel (1:1) (BD Bioscience) and subcutaneously implanted in the right shoulders of Female BALB/c nude mice. PET/CT studies were performed when the tumor volume reached 250 mm^3 (4–6 weeks after inoculation).
(§3) PET/CT imaging of tumor-bearing mice was performed on a clinical time-of-flight (TOF) 64-slice PET/Computed tomography (CT) scanner (Discovery 790 Elite, GE healthcare). The mice bearing tumors (for each group n = 4) were injected with 3.7 MBq (100 μCi) of ^18F-IRS into the tail vein. At 30 min, 60 min and 120 min after injection, the mice were anesthetized with 2% isoflurane and placed near the center of the field of view of the PET/CT scanner in prone position. For blocking studies, gefitinib (100 mg/kg) was injected into HCC827 xenografts nude mice (n = 4) via tail vein 60 min before PET/CT imaging. The mice were imaged as described above 120 min after injection.
(§4) The images were reconstructed using a two-dimensional ordered-subset expectation maximization (OSEM) algorithm. For each scan, regions of interest (ROIs) were drawn over the tumor and major organs using the AW4.6 software (GE Healthcare) on decay-corrected whole-body coronal images. The radioactivity concentrations (accumulations) within the tumor, muscle were obtained from mean pixel values within the multiple ROI volumes and then converted to megabecquerels per milliliter per minute using the calibration factor determined for the PET system. These values were then divided by the administered activity to obtain (assuming a tissue density of 1 g/ml) an image ROI-derived percent injected dose per gram (% ID/g).

H1975 xenografts = experiment: In vivo PET/CT imaging of tumor-bearing mice; parameters: species or system BALB/c nude mice; conditions: H1975 tumors, all time points
Procedure: as §2, §3, §4

H358 xenografts [7] = experiment: In vivo PET/CT imaging of tumor-bearing mice; parameters: species or system BALB/c nude mice; conditions: H358 tumors, all time points
Procedure: as §2, §3, §4

H520 xenografts [8] = experiment: In vivo PET/CT imaging of tumor-bearing mice; parameters: species or system BALB/c nude mice; conditions: H520 tumors, all time points
Procedure: as §2, §3, §4

H358 xenografts [9] = experiment: Ex vivo biodistribution, tumor uptake; assay type: in vivo, BALB/c nude mice; conditions: H358 tumors, 120 min after injection
Procedure: as §2
(§5) Biodistribution studies were performed in BALB/c nude mice bearing HCC827, H1975, H358 and H520 xenografts by injecting 3.7MBq of ^18F-IRS into the tail vein (n = 4 per group) and then sacrificing the animals at 30 min, 60 min and 120 min after injection. Tumor and normal tissues were excised and weighed, and the radioactivity was measured using a gamma-counter (Wizard 2, PerkinElmer). All measurements were background-subtracted and decay-corrected to the time of injection and then averaged together. The radioactivity uptake in tumor and normal tissues was expressed as the percentage of the injected dose per gram of organ (% ID/g).

H520 xenografts [10] = experiment: Ex vivo biodistribution, tumor uptake; assay type: in vivo, BALB/c nude mice; conditions: H520 tumors, 120 min after injection
Procedure: as §2, §5

HCC827 xenografts [11] = experiment: Ex vivo biodistribution, tumor uptake; assay type: in vivo, BALB/c nude mice
Procedure: as §2, §5

[12] = Biodistribution and clearance in normal organs of tumor-bearing mice; assay type: in vivo, BALB/c nude mice
Procedure: as §3, §5

[13] = tested on: NSCLC with responsive EGFR exon 19 deleted; experiment: PET/CT examination of patients with NSCLC; assay type: in vivo, human
Excerpt: This study (ClinicalTrials.gov number, NCT03031522) was approved by the Medical Ethics Review Committee of the Fourth Hospital of Harbin Medical University. Subjects signed written informed consent after receiving an explanation of the study. The images provided in this article have been agreed by the subjects. The diagnosis was confirmed by histopathological examination. Three patients confirmed having NSCLC with responsive EGFR exon 19 deleted by histopathology participated in the study from January 2015 to February 2016 (Table 2). ^18F-IRS scans were performed on PET/CT (Discovery 790 Elite; GE healthcare). Approximately 222MBq (6 mCi) of ^18F-IRS was administered intravenously within 5 minutes. Scanning was in initiated 1 hour after administration of ^18F-IRS. Corresponding whole body CT scans for attenuation correction were acquired using a low-dose protocol. Consecutively, PET emission data were acquired in three-dimensional mode with a 200 × 200 matrix with 3 min emission time per bed position. The maximum standard uptake value (SUVmax) normalized to body weight […] was calculated within the region of interest with the following formula: [measured activity concentration (Bq/mL) · body weight (kg)]/injected activity (Bq). Calculation of the radioactivity concentration included the use of a calibration factor that converted the activity counts into becquerels, and the decay correction of the Advantage Workstation 4.6 workstation (GE Healthcare) was […].

H1975 cells [14] = experiment: MTT cell growth inhibition assay; assay type: cell-based; conditions: Homo sapiens, NCI-H1975, H1975 cells (L858R and T790M EGFR mutations), 48 h
Procedure: (§6) NSCLC having EGFR with L858R mutation is also respond to EGFR kinase inhibitors. H3255 cells expressing EGFR L858R mutant is sensitive to EGFR kinase inhibitors. In order to measure the sensitivity of five NSCLC cell lines to F-IRS, […] assay was performed. Tumor cells were plated at a density of 2 × 10^3 cells/well into 96-well plates in RPMI 1640 with 10% FBS. Cells were kept in the log phase of proliferative activity. Various concentrations of F-IRS added to each well, and incubation was continued for an additional 48 h. Then, 50 μL of MTT solution (2 mg/mL; Sigma) were added to all wells, and incubation was continued for another 2 h. The media containing MTT solution was removed, and the precipitated material was dissolved by adding 100 μL of DMSO. The absorbance was measured with a microplate reader at test and reference wavelengths of […], respectively. The percentage of growth is shown relative to untreated controls.

H3255 cells = experiment: MTT cell growth inhibition assay; assay type: cell-based; conditions: Homo sapiens, NCI-H3255, H3255 cells (EGFR L858R mutant), 48 h
Procedure: as §6

H358 cells [15] = experiment: MTT cell growth inhibition assay; assay type: cell-based; conditions: Homo sapiens, NCI-H358, H358 cells (WT EGFR), 48 h
Procedure: as §6

H520 cells [16] = experiment: MTT cell growth inhibition assay; assay type: cell-based; conditions: Homo sapiens, NCI-H520, H520 cells (negative EGFR), 48 h
Procedure: as §6

HCC827 cells [17] = experiment: MTT cell growth inhibition assay; assay type: cell-based; conditions: Homo sapiens, HCC827 cells (19 exon deleted mutant EGFR), 48 h
Procedure: as §6

[18] = HCC827 tumors, 120 min after i.v. injection of 3.7 MBq
[19] = Mean ± SD of three patients, 60 min after injection
[20] = patient 1, 60 min after injection
[21] = patient 2, 60 min after injection
[22] = patient 3, 60 min after injection

## COc1cc2ncnc(Nc3ccc(F)c(Cl)c3)c2cc1OCCCN1CCOCC1 [gefitinib]
H1975
  sensitivity of cell line: conferring resistance
H358 cell line
  sensitivity of cell line: less sensitive
H520 cells [1]
  sensitivity of cell line: do not respond

## Fc1ccc(Nc2ncnc3cc(OCCOCCOCCOCC[18F])c(OCCCN4CCOCC4)cc23)cc1Cl [^18F-IRS]
HCC827 cells [2]; HCC827 cells treated with 100 μmol/L gefitinib, 120 min of incubation
  cellular uptake after blocking: 0.89 ± 0.12%
HCC827 cells [2]; 15 min of incubation
  cellular uptake: 7.51 ± 1.05%
HCC827 cells [2]; 30 min of incubation
  cellular uptake: 10.03 ± 0.47%
HCC827 cells [2]; 120 min of incubation
  cellular uptake: 14.07 ± 0.98%
H1975 cells [3]
  cellular uptake: 1.49 ± 0.05%
H358 cells [4]
  cellular uptake: 1.82 ± 0.19%
H520 cells [5]
  cellular uptake: 2.31 ± 0.36%
HCC827 xenografts [6]; [18]
  accumulation in tumors on PET/CT images: significantly high accumulation
HCC827 xenografts [6]; HCC827 vs H1975, H358 and H520 xenografts, 120 min, P < 0.01
  tumor/muscle ratio (PET quantification): significantly higher
HCC827 xenografts [6]; HCC827 xenografts, gefitinib 100 mg/kg before imaging, 120 min
  tumor uptake on PET/CT after blocking: blocked by gefitinib
H1975 xenografts
  tumor uptake on PET/CT images: unobviously detectable
H358 xenografts [7]
  tumor uptake on PET/CT images: unobviously detectable
H520 xenografts [8]
  tumor uptake on PET/CT images: unobviously detectable
H358 xenografts [9]
  tumor uptake (ex vivo biodistribution): 1.68 ± 0.29 % ID/g
H520 xenografts [10]
  tumor uptake (ex vivo biodistribution): 1.62 ± 0.08 % ID/g
HCC827 xenografts [11]; [18]
  tumor uptake (ex vivo biodistribution): 4.27 ± 0.15 % ID/g
HCC827 xenografts [11]; HCC827 xenografts blocked by gefitinib 100 mg/kg, 120 min
  tumor uptake (ex vivo biodistribution) after blocking: 1.12 ± 0.21 ID/g
[12]; mice, PET/CT imaging and biodistribution
  route of elimination: mainly eliminated through renal clearance
[12]; tumor-bearing nude mice, except kidneys, intestine and gallbladder
  uptake in all other organs and blood: very low
[13]; [19]
  SUVmax Bladder: 5.11 ± 3.02
  SUVmax Brain: 0.43 ± 0.29
  SUVmax Kidneys: 13.13 ± 0.31
  SUVmax Liver: 10.48 ± 0.44
  SUVmax Lungs: 0.82 ± 0.23
  SUVmax Muscles: 0.65 ± 0.14
  SUVmax Small intestines: 8.05 ± 1.67
  SUVmax Tumor: 2.44 ± 0.49
[13]; [20]
  SUVmax Bladder: 8.51
  SUVmax Brain: 0.19
  SUVmax Kidneys: 12.96
  SUVmax Liver: 10.52
  SUVmax Lungs: 0.58
  SUVmax Muscles: 0.73
  SUVmax Small intestines: 7.17
  SUVmax Tumor: 2.19
[13]; [21]
  SUVmax Bladder: 4.11
  SUVmax Brain: 0.76
  SUVmax Kidneys: 13.49
  SUVmax Liver: 10.9
  SUVmax Lungs: 1.04
  SUVmax Muscles: 0.75
  SUVmax Small intestines: 9.99
  SUVmax Tumor: 2.12
[13]; [22]
  SUVmax Bladder: 2.72
  SUVmax Brain: 0.34
  SUVmax Kidneys: 12.95
  SUVmax Liver: 10.02
  SUVmax Lungs: 0.85
  SUVmax Muscles: 0.49
  SUVmax Small intestines: 7.01
  SUVmax Tumor: 3.01
[13]; patients with NSCLC
  main route of elimination: urinary tract, followed by the hepatobiliary
[13]; patients with NSCLC, after i.v. injection
  changes in heart rates, respiration rates, and blood pressure: no significant changes

## FCCOCCOCCOCCOc1cc2ncnc(Nc3ccc(F)c(Cl)c3)c2cc1OCCCN1CCOCC1 [F-IRS]
H1975 cells [14]
  IC50: 2270 ± 1170 nM
H3255 cells
  IC50: 13.1 ± 4.4 nM
H358 cells [15]
  IC50: 7050 ± 2300 nM
H520 cells [16]
  IC50: 18400 ± 2210 nM
HCC827 cells [17]
  IC50: 5.6 ± 0.2 nM
